{
  "source": "paper PMC6837752",
  "about": "“Effectiveness of four types of neuraminidase inhibitors approved in Japan for the treatment of influenza” (PLoS ONE, 2019)",
  "key": {"[1]": {"system": "influenza A/H1N1pdm09, A/H3N2, and B viruses", "test": "Fever duration after NAI treatment in outpatients with laboratory confirmed influenza (observational study)", "assay_type": "in vivo, human", "settings": "for HR (Cox proportional hazards model of fever duration): multivariable analysis, compared to oseltamivir (reference 1.00); for Mean fever duration after NAI treatment: univariate analysis, all patients aged <20 years, all types/subtypes, from start of treatment to <37.5 °C"}, "[2]": {"system": "influenza B", "settings": "patients aged 5 to 18 years, cited from earlier work"}, "[3]": {"system": "oseltamivir-sensitive influenza A/H1N1pdm09 virus", "assay_type": "in vivo", "settings": "oseltamivir-treated patients 0–5 years, oseltamivir-sensitive viruses, n = 111"}},
  "note": "Where “and” joins values, the source holds several entries; their conditions need not be identical. Identical values can stand only once.",
  "data": [
    {"compound": "CC(=O)N[C@H]1[C@H]([C@H](O)[C@H](O)CO)OC(C(=O)O)=C[C@@H]1N=C(N)N", "note": "[Zanamivir, zanamivir]", "values": [
      {"measurement": "Average fever duration", "setting": "[1]; age group 0 to 5 years", "result": 45.4, "unit": "h"},
      {"measurement": "Average fever duration", "setting": "[1]; age group 6 to 9 years", "result": 42.3, "unit": "h"},
      {"measurement": "Average fever duration", "setting": "[1]; age group 10 to 19 years", "result": 35.4, "unit": "h"},
      {"measurement": "HR (Cox proportional hazards model of fever duration)", "setting": "[1]", "result": 0.87},
      {"measurement": "Mean fever duration after NAI treatment", "setting": "[1]", "result": 38.5, "unit": "h"}
    ]},
    {"compound": "peramivir", "values": [
      {"measurement": "Average fever duration", "setting": "[1]; age group 0 to 5 years", "result": 46.3, "unit": "h"},
      {"measurement": "Average fever duration", "setting": "[1]; age group 6 to 9 years", "result": 31.3, "unit": "h"},
      {"measurement": "Average fever duration", "setting": "[1]; age group 10 to 19 years", "result": 32.3, "unit": "h"},
      {"measurement": "HR (Cox proportional hazards model of fever duration)", "setting": "[1]", "result": 1.05},
      {"measurement": "Mean fever duration after NAI treatment", "setting": "[1]", "result": 38.3, "unit": "h"}
    ]},
    {"compound": "[H]/N=C(\\N)N[C@H]1C=C(C(=O)O)O[C@@H]([C@H](OC)[C@H](O)CO)[C@@H]1NC(C)=O", "note": "[Laninamivir, laninamivir]", "values": [
      {"measurement": "Median fever duration longer than for peramivir", "setting": "[2]; P <0.01", "result": 1, "unit": "days"},
      {"measurement": "Median fever duration after treatment", "setting": "[2]", "result": 3, "unit": "days"},
      {"measurement": "Average fever duration", "setting": "[1]; age group 0 to 5 years", "result": 75.8, "unit": "h"},
      {"measurement": "Average fever duration", "setting": "[1]; age group 6 to 9 years", "result": 42.9, "unit": "h"},
      {"measurement": "Average fever duration", "setting": "[1]; age group 10 to 19 years", "result": 36.6, "unit": "h"},
      {"measurement": "HR (Cox proportional hazards model of fever duration)", "setting": "[1]", "result": 0.78},
      {"measurement": "Mean fever duration after NAI treatment", "setting": "[1]", "result": 39.8, "unit": "h"}
    ]},
    {"compound": "CCOC(=O)C1=C[C@@H](OC(CC)CC)[C@H](NC(C)=O)[C@@H](N)C1", "note": "[Oseltamivir, oseltamivir]", "values": [
      {"measurement": "Average fever duration", "setting": "[3]", "result": "40 h and 40 ± 27 h"},
      {"measurement": "Average fever duration", "setting": "[1]; age group 0 to 5 years", "result": 42.2, "unit": "h"},
      {"measurement": "Average fever duration", "setting": "[1]; age group 6 to 9 years", "result": 37.3, "unit": "h"},
      {"measurement": "Average fever duration", "setting": "[1]; age group 10 to 19 years", "result": 29.8, "unit": "h"},
      {"measurement": "HR (Cox proportional hazards model of fever duration)", "setting": "[1]", "result": 1.00},
      {"measurement": "Mean fever duration after NAI treatment", "setting": "[1]", "result": 40.1, "unit": "h"}
    ]}
  ]
}
